This note sets out measurements from patent US20040014066A1, “Screening system” (priority 2000, published 2004).

The test system of the assay is sigE promoter. The assay is described as follows: sigE promoter bioassay: sigEp-neo fusion (pIJ6880) in M600, paper discs on MMT medium with lethal kanamycin, halo of kanamycin-resistant growth. The assay is classed as cell-based, Streptomyces coelicolor A3(2). The settings on record: for induction of the sigE promoter (halo of kanamycin-resistant growth), in words: M600 carrying pIJ6880, MMT medium, kanamycin 100 μg ml^−1, paper disc; for potency as inducer of the sigE promoter, in words: M600 carrying pIJ6880, kanamycin 100 μg ml^−1, paper disc. The protocol: To see if the sigE promoter could be induced by control-antibiotics known to target the cell envelope, spores of M600 carrying pIJ6880 were spread on MMT medium carrying a lethal concentration of kanamycin (100 μg ml^−1) and potential inducers were applied on paper discs to the freshly spread plates.
In order to perform the assay of the invention,spores of the host microorganism, for example, M600 carrying pIJ6880, are spread on MMT medium carrying a lethal concentration of kanamycin (100 μg ml^−1)at concentration of approximately 5×10^6/12 cm^2 plate. Test compound is applied on paper discs to a number of freshly spread plates in parallel using a different concentration of the test compound in each plate.

“Also recorded” adds a separate entry of the source. Positions of bridges follow the written chain, without caps; N, C: chain ends. Non-standard residues stand in square brackets, D forms with d. Residues, ends and D or L forms follow the SMILES beside them. *: point of attachment. Ileψ(thiazoline)Cys = CC[C@H](C)[C@H](N)C1=N[C@H](C(=O)*)CS1; dOrn = NCCC[C@@H](N)C(=O)O

Turning to `CC1(C)S[C@@H]2[C@H](NC(=O)[C@H](N)c3ccc(O)cc3)C(=O)N2[C@H]1C(=O)O` [Amoxycillin], the “induction of the sigE promoter (halo of kanamycin-resistant growth), in words” value (shortened to “induction of the sigE promoter”) is reported as “induced a halo of kanamycin-resistant growth”. Regarding `CC1(C)S[C@@H]2[C@H](NC(=O)[C@H](N)c3ccccc3)C(=O)N2[C@H]1C(=O)O` [Ampicillin], the “induction of the sigE promoter” value was “found to induce the sigE promoter”. Regarding `CC[C@H](C)[C@H](N)C1=N[C@H](C(=O)N[C@@H](CC(C)C)C(=O)N[C@H](CCC(=O)O)C(=O)N[C@H](C(=O)N[C@H]2CCCCNC(=O)[C@H](CC(N)=O)NC(=O)[C@@H](CC(=O)O)NC(=O)[C@H](Cc3cnc[nH]3)NC(=O)[C@@H](Cc3ccccc3)NC(=O)[C@H]([C@@H](C)CC)NC(=O)[C@@H](CCCN)NC2=O)[C@@H](C)CC)CS1` [Bacitracin] ({Ileψ(thiazoline)Cys}-L[dE]IK[dOrn]I[dF]H[dD]N; lactam 4-C), the “induction of the sigE promoter” value is recorded as “found to induce the sigE promoter” and the “potency as inducer of the sigE promoter, in words” value (from here on “potency as inducer”) is reported as “particularly potent inducers”. With `N[C@@H](C(=O)N[C@@H]1C(=O)N2C(C(=O)O)=C(Cl)CS[C@H]12)c1ccccc1` [Cefaclor], the “induction of the sigE promoter” value was “found to induce the sigE promoter”. Same read-out and setting: the value for `CC1=C(C(=O)O)N2C(=O)[C@@H](NC(=O)[C@H](N)c3ccc(O)cc3)[C@H]2SC1` [Cefadroxil] was “found to induce the sigE promoter”. On the same count and under the same terms, in the case of `CC1=C(C(=O)O)N2C(=O)[C@@H](NC(=O)[C@H](N)c3ccccc3)[C@H]2SC1` [Cephalexin] it was “found to induce the sigE promoter”; in that of `CC1=C(C(=O)O)N2C(=O)[C@@H](NC(=O)[C@H](N)C3=CCC=CC3)[C@H]2SC1` [Cepharadine], “found to induce the sigE promoter”. For `CO[C@@H]1[C@@H](OC(N)=O)[C@@H](O)[C@H](Oc2ccc3c(O)c(NC(=O)c4ccc(O)c(CC=C(C)C)c4)c(=O)oc3c2C)OC1(C)C` [Novobiocin], the “induction of the sigE promoter” value is given as “do not induce a halo”. On the same count and under the same terms, in the case of `CC1(C)S[C@@H]2[C@H](NC(=O)Cc3ccccc3)C(=O)N2[C@H]1C(=O)O` [Penicillin G] it was “induced a halo of kanamycin-resistant growth; also recorded: found to induce the sigE promoter”.

Regarding `[H]/N=C(/N)N[C@H]1[C@H](O)[C@@H](O)[C@H](O[C@@H]2O[C@@H](C)[C@](O)(C=O)[C@H]2O[C@@H]2O[C@@H](CO)[C@H](O)[C@@H](O)[C@@H]2NC)[C@@H](N/C(N)=N\[H])[C@@H]1O` [Streptomycin], the “induction of the sigE promoter” value is “do not induce a halo”. Still for that read-out and setting: in the case of `C=C(NC(=O)C(=C)NC(=O)c1csc(C2=N[C@@H]3c4csc(n4)[C@H]4NC(=O)c5csc(n5)[C@H]([C@](C)(O)[C@@H](C)O)NC(=O)[C@H]5CSC(=N5)/C(=C/C)NC(=O)[C@H]([C@@H](C)O)NC(=O)c5csc(n5)[C@]3(CC2)NC(=O)[C@H](C)NC(=O)C(=C)NC(=O)[C@H](C)NC(=O)[C@H]([C@@H](C)CC)N[C@@H]2C=Cc3c([C@H](C)O)cc(nc3[C@H]2O)C(=O)O[C@@H]4C)n1)C(N)=O` [Thiostrepton] it was “do not induce a halo”; in that of `CC1(C)S[C@@H]2[C@H](NC(=O)[C@H](C(=O)O)c3ccsc3)C(=O)N2[C@H]1C(=O)O` [Ticarcillin], “induced a halo of kanamycin-resistant growth; also recorded: found to induce the sigE promoter”. As to `CN[C@H](CC(C)C)C(=O)N[C@H]1C(=O)N[C@@H](CC(N)=O)C(=O)N[C@H]2C(=O)N[C@H]3C(=O)N[C@H](C(=O)N[C@H](C(=O)O)c4cc(O)cc(O)c4-c4cc3ccc4O)[C@H](O)c3ccc(c(Cl)c3)Oc3cc2cc(c3O[C@@H]2O[C@H](CO)[C@@H](O)[C@H](O)[C@H]2O[C@H]2C[C@](C)(N)[C@H](O)[C@H](C)O2)Oc2ccc(cc2Cl)[C@H]1O` [Vancomycin], the “induction of the sigE promoter” value is given as “induced a halo of kanamycin-resistant growth; also recorded: found to induce the sigE promoter” and the “potency as inducer” value is “particularly potent inducers”. Moreover, the “signs of toxicity to the reporter strain while acting as inducer (halo grows to the edge of the disc)” value (paper disc, FIG. 2) was “without showing any signs of toxicity”.

On to `Cc1onc(-c2ccccc2)c1C(=O)N[C@@H]1C(=O)N2[C@@H]1SC(C)(C)[C@@H]2C(=O)O` [oxacillin], for which the “induction of the sigE promoter” value is reported as “found to induce the sigE promoter”. For the compound Ristocetin, the “induction of the sigE promoter” value is reported as “induced a halo of kanamycin-resistant growth; also recorded: found to induce the sigE promoter” and the “potency as inducer” value is recorded as “particularly potent inducers”. Also, the “amount giving a positive reaction in the bioassay (initial assessment of sensitivity)” value (sigE promoter bioassay) came to 75 ng.

With Teicoplanin, the “induction of the sigE promoter” value is listed as “induced a halo of kanamycin-resistant growth; also recorded: found to induce the sigE promoter” and the “potency as inducer” value was “particularly potent inducers”.

On to lysozyme, for which the “induction of the sigE promoter” value was “acted as an inducer”.
